From patent US20060063820A1, “2,6-dihalo-4-(3,3-dichloro-allyloxy)-benzylalcohole derivatives having insecticidal and acaricidal properties” (priority 2002, published 2006)
Like-named read-outs stand apart in the source and are kept apart here.

Assays:
[1] = test system: Heliothis virescens; assay: Action against Heliothis virescens caterpillars (sprayed soybean plants); format: in vivo; details: 144 h, read-out: percentage reduction in population and percentage reduction in feeding damage (% activity)
Experimental: (§1) Young soybean plants are sprayed with an aqueous emulsion spray mixture comprising 400 ppm of active ingredient. After the spray-coating has dried, the soybean plants are populated with 10 caterpillars of Heliothis virescens in the first stage and placed in a plastics container. Evaluation is made 6 days later. The percentage reduction in population and the percentage reduction in feeding damage (% activity) are determined by comparing the number of dead caterpillars and the feeding damage on the treated plants with that on the untreated plants.

[2] = test system: Plutella xylostella; assay: Action against Plutella xylostella caterpillars (sprayed cabbage plants); format: in vivo; details: 72 h, read-out: percentage reduction in population and percentage reduction in feeding damage (% activity)
Experimental: as §1, with “cabbage” for “soybean”, “Plutella xylostella” for “Heliothis virescens”, “third” for “first”, “3” for “6”

[3] = test system: Spodoptera littoralis; assay: Action against Spodoptera littoralis (sprayed soybean plants); format: in vivo; details: 72 h, read-out: percentage reduction in population and percentage reduction in feeding damage (% activity)
Experimental: Young soybean plants are sprayed with an aqueous emulsion spray mixture comprising 400 ppm of test compound and, after the spray-coating has dried, the plants are populated with 10 caterpillars of Spodoptera littoralis in the first stage and then placed in a plastics container. 3 days later, the percentage reduction in population and the percentage reduction in feeding damage (% activity) are determined by comparing the number of dead caterpillars and the feeding damage on the treated plants with that on untreated plants.

[4] = 400 ppm spray mixture, soybean plants, caterpillars in the first stage, evaluation 6 days later
[5] = 400 ppm spray mixture, cabbage plants, caterpillars in the third stage, evaluation 3 days later
[6] = 400 ppm spray mixture, soybean plants, caterpillars in the first stage, 3 days later

| SMILES | inhibition at 400 ppm [1, 4] | inhibition at 400 ppm [2, 5] | inhibition at 400 ppm [3, 6] | further results |
| --- | --- | --- | --- | --- |
| N#Cc1c(Br)sc(C2OCC(COCc3c(Cl)cc(OCC=C(Cl)Cl)cc3Cl)O2)c1Cl (stereo not shown) [Compound 2.17] | > 80% | > 80% | – | – |
| C#COc1cccc(OCCOCc2c(Cl)cc(OCC=C(Cl)Cl)cc2Cl)c1 [Compound 4.4, 1,3-dichloro-5-(3,3-dichloroallyloxy)-2-[2-(3-ethynyloxy-phenoxy)-ethoxymethyl]-benzene] | > 80% | > 80% | – | – |
| FC(F)(F)c1cc(OCc2c(Cl)cc(OCC=C(Cl)Cl)cc2Cl)ccn1 [Compound 1.14] | – | > 80% | – | – |
| ClC(Cl)=CCOc1cc(Cl)c(COCc2cnc(Cl)c(Cl)c2)c(Cl)c1 [Compound 5.14] | – | – | – | inhibition at 400 ppm [1]: > 80%; inhibition at 400 ppm [2]: > 80%; inhibition at 400 ppm [3]: > 80% |
| O=[N+]([O-])c1cc(C2OCC(COCc3c(Cl)cc(OCC=C(Cl)Cl)cc3Cl)O2)cs1 (stereo not shown) [Compound 2.12] | > 80% | > 80% | > 80% | – |
| Cc1nsc(Oc2cccc(OCc3c(Cl)cc(OCC=C(Cl)Cl)cc3Cl)c2)n1 [Compound 1.21] | – | > 80% | – | – |
| O=C(OCc1c(Cl)cc(OCC=C(Cl)Cl)cc1Cl)C1(c2ccc(OC(F)(F)F)cc2)CC1 [Compound 3.15] | > 80% | > 80% | > 80% | – |
| ClC(Cl)=CCOc1cc(Cl)c(COc2ccnc3cc(Cl)ccc23)c(Cl)c1 [Compound 1.12] | – | – | – | inhibition at 400 ppm [1]: > 80%; inhibition at 400 ppm [2]: > 80%; inhibition at 400 ppm [3]: > 80% |
| ClC(Cl)=CCOc1cc(Cl)c(COc2ccc3c(c2)OCO3)c(Cl)c1 [Compound 1.8] | – | – | – | inhibition at 400 ppm [2]: > 80% |
| ClC(Cl)=CCOc1cc(Cl)c(COCC2COC(c3ccc(Br)s3)O2)c(Cl)c1 (stereo not shown) [Compound 2.8] | > 80% | > 80% | > 80% | – |
| FC(F)(F)c1ccc(OCc2c(Cl)cc(OCC=C(Cl)Cl)cc2Cl)cc1 [Compound 1.2] | > 80% | – | > 80% | – |
| O=C(OCCOCc1c(Cl)cc(OCC=C(Cl)Cl)cc1Cl)c1ccc(OC(F)(F)F)cc1 [Compound 8.12] | > 80% | > 80% | > 80% | – |
| Cn1nc(C2OCC(COCc3c(Cl)cc(OCC=C(Cl)Cl)cc3Cl)O2)c(C(F)(F)F)c1Cl (stereo not shown) [Compound 2.15] | > 80% | > 80% | > 80% | – |
| FC(F)(F)c1ccc(OCCOCc2c(Cl)cc(OCC=C(Cl)Cl)cc2Cl)nc1 [Compound 4.11] | > 80% | > 80% | > 80% | – |
| O=C(OCc1c(Cl)cc(OCC=C(Cl)Cl)cc1Cl)C1(c2ccc([N+](=O)[O-])cc2)CC1 [Compound 3.17] | – | – | – | melting point: 107 to 108 °C |
| FC(F)(F)c1ccc(COCc2c(Cl)cc(OCC=C(Cl)Cl)cc2Cl)cc1 [Compound 5.6] | > 80% | > 80% | > 80% | – |
| Cc1nsc(Oc2ccc(OCCOCc3c(Cl)cc(OCC=C(Cl)Cl)cc3Cl)cc2)n1 [Compound 4.10] | – | – | – | melting point: 95 to 97 °C |
| O=C(OCc1c(Cl)cc(OCC=C(Cl)Cl)cc1Cl)C1(c2ccc(F)cc2F)CC1 [Compound 3.16] | – | – | – | melting point: 63 to 64 °C |
| COC(=O)COCc1c(Cl)cc(OCC=C(Cl)Cl)cc1Cl [Compound 7.5] | > 80% | > 80% | > 80% | – |
| O=[N+]([O-])c1cccc(COCc2c(Cl)cc(OCC=C(Cl)Cl)cc2Cl)c1 [Compound 5.9, 1,3-dichloro-5-(3,3-dichloroallyloxy)-2-(3-nitrobenzyloxymethyl)-benzene] | – | – | – | inhibition at 400 ppm [1]: > 80%; inhibition at 400 ppm [2]: > 80% |
| O=C(NCc1c(Cl)cc(OCC=C(Cl)Cl)cc1Cl)Nc1ccccc1C(F)(F)F [Compound 6.23, 1-[2,6-dichloro-4-(3,3-dichloroallyloxy)-benzyl]-3-(2-trifluoromethylphenyl)-urea] | > 80% | > 80% | > 80% | melting point: 215 to 216 °C |
| FC(F)(F)Oc1ccc(C2OCC(COCc3c(Cl)cc(OCC=C(Cl)Cl)cc3Cl)O2)cc1 (single isomer, unassigned) [Compound 2.3, 4-[2,6-dichloro-4-(3,3-dichloroallyloxy)-benzyloxymethyl]-2-(4-trifluoromethoxyphenyl)-[1,3]dioxolane] | > 80% | > 80% | > 80% | – |
| O=C(OCCOCc1c(Cl)cc(OCC=C(Cl)Cl)cc1Cl)c1ccc(C(F)(F)F)cc1 [Compound 8.11] | – | – | > 80% | – |
| CC(C)Oc1ccc(C2(C(=O)OCc3c(Cl)cc(OCC=C(Cl)Cl)cc3Cl)CC2)cc1 [Compound 3.12] | > 80% | > 80% | > 80% | – |
| FC1(F)Oc2cccc(C3OCC(COCc4c(Cl)cc(OCC=C(Cl)Cl)cc4Cl)O3)c2O1 (stereo not shown) [Compound 2.10] | > 80% | > 80% | > 80% | – |
| C#CCOc1cccc(OCc2c(Cl)cc(OCC=C(Cl)Cl)cc2Cl)c1 [Compound 1.3] | – | – | – | inhibition at 400 ppm [1]: > 80%; inhibition at 400 ppm [2]: > 80%; inhibition at 400 ppm [3]: > 80% |
